According to patent publication US11549115B2, “Compositions and methods for regulated gene expression” (YALE UNIVERSITY, priority 2017, dated 2023):

Key:
[1] = tested on: Bt::tetR P1TDP^GH023-NanoLuc; assay: Fecal luminescence in monocolonized gnotobiotic mice; type: in vivo
Experimental: Germ-free Swiss Webster mice were orally gavaged with 1×10^9 CFU of Bt::tetR P1TDP^GH023-NanoLuc and colonization was allowed to stabilize for at least 7 days prior to the start of the experiment. Fecal pellets were collected every day, and groups of mice were given aTC in the drinking water at various concentrations for 48 hours after stool collection on Day 3 and Day 17. Mice belonging to the same treatment group were co-housed for the duration of the experiment. To obtain samples for luminescence production, fecal pellets and intestinal lumen (˜100-200 mg) were homogenized in 1 mL of 1×PBS with a single 5 mm stainless steel bead using a bead beater (BioSpec Products) at 26° C. for 1 minute on the high setting, followed by vortexing at top speed for 8 minutes. Samples were centrifuged at 500×g for 1 minute to pellet fibrous and insoluble matter. The supernatant was used for CFU determination by plating dilutions on BHI-blood agar plates containing gentamicin and erythromycin, and 500 μL was used for luminescence measurements (described below).
(§1) The 500 μL collected from the resuspended fecal supernatant was centrifuged at 21,130×g for 3 minutes to pellet bacterial cells, which were then resuspended in 50 μL 1× BugBuster (Novagen) in 1×PBS and lysed by one round of freeze-thaw and 10 minutes of nutation at 26° C. Samples were centrifuged at 21,130×g for 10 minutes at 4° C., and 10 μL of the supernatant was mixed with an equal volume of NanoLuc Reaction Buffer to induce luminescence production. Luminescence was measured after a 5 minute incubation at 26° C. on a plate reader (BioTek Synergy H1) with an integration time of 1 second at a gain setting of 100. Luminescence values were normalized to colony forming units (CFUs) determined by dilution plating of the resuspended fecal supernatant on BHI-blood agar plates containing gentamicin and erythromycin.

[2] = tested on: Bt::tetR P1TDP^GH023-NanoLuc; type: in vivo, mice
Experimental: 8-10 week old SPF Rag^−/− mice (Jackson Laboratories) (n=7) were colonized by oral gavage with 1×10^9 CFU of B. thetaiotaomicron TetR-P1TDP^GH023-NanoLuc. Fecal pellets were collected daily after gavage and processed as described above. The supernatant was used for CFU determination by plating dilutions on BHI-blood agar plates containing gentamicin and erythromycin, and 500 μL was used for luminescence measurements (described below).
as §1

sialidase BT0455 = assay: Sialidase activity in murine fecal samples (pNP-SA hydrolysis, LC-MS); type: in vivo, Bacteroides thetaiotaomicron; settings: mice carrying Bt^RS
Experimental: Groups of 6 germ-free Swiss Webster mice were orally gavaged with 1×10^9 CFU of the desired B. thetaiotaomicron strain. Fecal samples (˜100-200 mg) were collected daily for 12 days. aTC (100 μg/mL) was administered in drinking water for 12 hours after fecal collection on day 1. Fecal samples were homogenized in 1 mL of 1× tris-buffered saline (TBS) with a single 5 mm stainless steel bead using a bead beater (BioSpec Products) at 26° C. for 1 minute on the high setting, followed by vortexing at top speed for 8 minutes. Samples were then centrifuged at 500×g for 1 minute to pellet fibrous and insoluble matter. […]
Bacterial cells (collected and stored as described above) were lysed through one round of freeze-thaw followed by nutation for 10 minutes at 26° C. […] Quantification of the enzyme reaction product, p-nitrophenol (pNP), was identical to the LC-MS analysis of aTC described above, but with reduced injection volume (5 μL) and methanol replacing acetonitrile as solvent B for the reversed phase chromatography. […] Linear fit values were normalized to amount of protein in the cellular lysates added to each reaction, which was determined by Bradford. […]

[3] = in vivo; cited from earlier work

Structure (SMILES): Cc1c2c(c(O)c3c(O)cccc13)C(=O)[C@]1(O)C(=O)C(C(N)=O)=C(O)[C@@H](N(C)C)[C@@H]1C2 [aTC, Anhydrotetracycline]
- impact on B. thetaiotaomicron stability in the gut ([1]; CFU): do not impact B. thetaiotaomicron stability in the gut
- aTC concentration at which detectable responses start ([1]; drinking water, within 24 hours): 0.2 to 0.5 µg/mL
- complete repression after aTC removal ([1]; monocolonized mice): 9 days
- increase of luminescence in fecal pellets ([1]; monocolonized mice, within 24 hours of aTC addition): ~1,000 fold
- range of commensal gene expression modulated inside the gut by varying aTC concentrations ([1]; mouse, in vivo): 3 orders of magnitude
- aTC concentration providing maximal gene induction in vivo ([1]; sigmoidal fit): 100 µg/mL
- return of fecal luminescence to baseline after aTC removal ([2]; SPF Rag-/- mice): 3 days
- increase in fecal luminescence ([2]; SPF Rag-/- mice, aTC in drinking water for 48 hours): 4,800 fold
- effect on stability of B. thetaiotaomicron in a complete murine microbiota ([2]; mouse, in vivo): does not affect the stability of B. thetaiotaomicron
- sialidase activity again undetectable after aTC removal (sialidase BT0455): 4 days
- concentration in drinking water that does not adversely affect mouse health [3]: 100 µg/mL
